# Counter-ions that a name gives are not always drawn.
# Experiments:
# Experiment in all cases: isoTOP-ABPP of compound-treated primary human T cells
# Format in all cases: cell-based
# [1] = target: T1, Cys residues in primary human T cells (Homo sapiens, UniProt P54136); details: RARS C32 (P54136)
# T1 sequence (P54136 1-660): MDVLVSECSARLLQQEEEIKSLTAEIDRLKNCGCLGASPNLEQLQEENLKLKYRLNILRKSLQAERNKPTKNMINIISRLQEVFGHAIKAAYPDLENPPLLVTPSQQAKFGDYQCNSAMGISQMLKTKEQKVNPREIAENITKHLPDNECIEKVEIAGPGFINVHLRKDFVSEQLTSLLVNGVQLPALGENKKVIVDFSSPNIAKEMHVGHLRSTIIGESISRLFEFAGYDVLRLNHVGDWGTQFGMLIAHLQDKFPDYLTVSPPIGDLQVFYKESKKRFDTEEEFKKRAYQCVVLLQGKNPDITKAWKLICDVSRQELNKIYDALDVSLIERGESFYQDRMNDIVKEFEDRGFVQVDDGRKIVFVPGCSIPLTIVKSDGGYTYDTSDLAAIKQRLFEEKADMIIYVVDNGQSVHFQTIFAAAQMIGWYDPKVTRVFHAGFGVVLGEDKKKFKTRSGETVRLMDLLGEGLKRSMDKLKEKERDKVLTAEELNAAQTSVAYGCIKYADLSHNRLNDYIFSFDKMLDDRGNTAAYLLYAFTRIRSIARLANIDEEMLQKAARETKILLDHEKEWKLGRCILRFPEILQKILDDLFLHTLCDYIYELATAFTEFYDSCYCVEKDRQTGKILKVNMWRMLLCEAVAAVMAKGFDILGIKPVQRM
# [2] = target: Cys residues in primary human T cells (Homo sapiens, UniProt Q8TB24); details: RIN3 C942 (Q8TB24)
# Cys residues in primary human T cells (Homo sapiens, UniProt Q8TB24), sequence (Q8TB24 whole entry): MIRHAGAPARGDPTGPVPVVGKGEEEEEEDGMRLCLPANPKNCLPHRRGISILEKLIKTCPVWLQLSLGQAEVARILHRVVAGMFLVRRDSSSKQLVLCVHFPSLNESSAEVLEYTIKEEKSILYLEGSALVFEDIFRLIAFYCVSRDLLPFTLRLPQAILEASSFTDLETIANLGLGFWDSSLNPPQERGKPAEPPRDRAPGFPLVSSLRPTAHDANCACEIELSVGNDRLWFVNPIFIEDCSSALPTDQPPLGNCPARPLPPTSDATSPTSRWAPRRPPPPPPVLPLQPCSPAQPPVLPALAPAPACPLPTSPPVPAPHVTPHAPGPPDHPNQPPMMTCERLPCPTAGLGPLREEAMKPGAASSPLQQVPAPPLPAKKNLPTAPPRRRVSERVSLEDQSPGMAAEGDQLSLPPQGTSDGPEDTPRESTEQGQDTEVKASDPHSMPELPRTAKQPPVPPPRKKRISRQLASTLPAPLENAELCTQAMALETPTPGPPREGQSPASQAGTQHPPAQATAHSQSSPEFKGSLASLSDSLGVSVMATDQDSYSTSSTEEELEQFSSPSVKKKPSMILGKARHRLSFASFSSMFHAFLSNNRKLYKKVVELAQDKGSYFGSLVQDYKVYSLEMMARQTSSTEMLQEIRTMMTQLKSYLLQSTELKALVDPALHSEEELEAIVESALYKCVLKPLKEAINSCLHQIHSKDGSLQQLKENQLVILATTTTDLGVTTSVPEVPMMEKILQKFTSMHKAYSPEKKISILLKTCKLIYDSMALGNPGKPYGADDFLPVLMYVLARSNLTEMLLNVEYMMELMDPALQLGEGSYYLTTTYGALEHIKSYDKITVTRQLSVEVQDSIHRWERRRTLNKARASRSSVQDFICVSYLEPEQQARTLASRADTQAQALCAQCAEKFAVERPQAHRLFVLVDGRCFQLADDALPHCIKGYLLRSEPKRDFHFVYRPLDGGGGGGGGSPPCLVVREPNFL
# [3] = target: T2, Cys residues in primary human T cells (Homo sapiens, UniProt Q9Y277)
# T2 sequence (Q9Y277 1-283): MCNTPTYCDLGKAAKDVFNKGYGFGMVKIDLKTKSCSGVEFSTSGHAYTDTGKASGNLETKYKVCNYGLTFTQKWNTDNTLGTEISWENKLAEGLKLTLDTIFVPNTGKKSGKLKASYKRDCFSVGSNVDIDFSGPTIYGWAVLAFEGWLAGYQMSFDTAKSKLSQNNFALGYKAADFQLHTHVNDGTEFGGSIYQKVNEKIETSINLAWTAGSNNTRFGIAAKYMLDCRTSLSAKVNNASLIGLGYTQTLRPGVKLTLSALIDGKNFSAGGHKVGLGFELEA
# [4] = target: T3, Cys residues in primary human T cells (Homo sapiens, UniProt O95081); details: AGFG2 C39 (O95081)
# T3 sequence (O95081 1-481): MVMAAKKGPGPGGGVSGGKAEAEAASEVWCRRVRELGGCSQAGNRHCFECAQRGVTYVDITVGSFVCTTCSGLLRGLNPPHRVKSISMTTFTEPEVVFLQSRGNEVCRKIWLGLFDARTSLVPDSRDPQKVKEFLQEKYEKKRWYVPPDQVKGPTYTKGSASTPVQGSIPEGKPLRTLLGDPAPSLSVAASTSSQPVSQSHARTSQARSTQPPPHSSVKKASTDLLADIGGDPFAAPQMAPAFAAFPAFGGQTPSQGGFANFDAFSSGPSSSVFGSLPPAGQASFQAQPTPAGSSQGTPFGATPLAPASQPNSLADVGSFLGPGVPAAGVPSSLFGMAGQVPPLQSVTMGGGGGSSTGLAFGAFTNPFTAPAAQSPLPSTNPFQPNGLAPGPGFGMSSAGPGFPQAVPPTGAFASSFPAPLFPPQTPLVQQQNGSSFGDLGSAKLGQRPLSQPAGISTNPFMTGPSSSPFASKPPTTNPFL
# [5] = target: T4, Cys residues in primary human T cells (Homo sapiens, UniProt P29590); details: PML C479 (P29590)
# T4 sequence (P29590 1-882): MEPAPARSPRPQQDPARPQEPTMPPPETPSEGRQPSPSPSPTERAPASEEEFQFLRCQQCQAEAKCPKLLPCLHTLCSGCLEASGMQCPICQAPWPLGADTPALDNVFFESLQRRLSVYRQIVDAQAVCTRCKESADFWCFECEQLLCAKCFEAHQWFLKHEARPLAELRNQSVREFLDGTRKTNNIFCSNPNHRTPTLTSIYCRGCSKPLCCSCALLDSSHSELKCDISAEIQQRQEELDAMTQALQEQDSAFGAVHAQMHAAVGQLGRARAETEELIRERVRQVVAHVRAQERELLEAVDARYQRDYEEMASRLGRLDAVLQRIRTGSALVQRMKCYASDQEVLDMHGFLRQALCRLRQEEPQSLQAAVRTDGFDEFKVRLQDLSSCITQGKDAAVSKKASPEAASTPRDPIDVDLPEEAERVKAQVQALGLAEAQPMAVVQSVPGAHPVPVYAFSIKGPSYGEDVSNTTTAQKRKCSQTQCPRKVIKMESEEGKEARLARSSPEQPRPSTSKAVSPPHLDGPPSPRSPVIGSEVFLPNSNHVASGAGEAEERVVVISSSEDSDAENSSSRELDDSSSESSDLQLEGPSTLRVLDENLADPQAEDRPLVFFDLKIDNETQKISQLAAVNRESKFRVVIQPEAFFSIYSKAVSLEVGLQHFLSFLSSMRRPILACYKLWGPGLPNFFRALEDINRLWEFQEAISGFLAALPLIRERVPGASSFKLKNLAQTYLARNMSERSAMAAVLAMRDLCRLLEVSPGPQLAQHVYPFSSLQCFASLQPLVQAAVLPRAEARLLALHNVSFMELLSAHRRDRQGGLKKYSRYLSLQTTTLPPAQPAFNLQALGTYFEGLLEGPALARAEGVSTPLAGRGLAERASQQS
# [6] = target: Cys residues in primary human T cells (Homo sapiens, UniProt P18583); details: SON C92 (P18583)
# Cys residues in primary human T cells (Homo sapiens, UniProt P18583), sequence (P18583 whole entry): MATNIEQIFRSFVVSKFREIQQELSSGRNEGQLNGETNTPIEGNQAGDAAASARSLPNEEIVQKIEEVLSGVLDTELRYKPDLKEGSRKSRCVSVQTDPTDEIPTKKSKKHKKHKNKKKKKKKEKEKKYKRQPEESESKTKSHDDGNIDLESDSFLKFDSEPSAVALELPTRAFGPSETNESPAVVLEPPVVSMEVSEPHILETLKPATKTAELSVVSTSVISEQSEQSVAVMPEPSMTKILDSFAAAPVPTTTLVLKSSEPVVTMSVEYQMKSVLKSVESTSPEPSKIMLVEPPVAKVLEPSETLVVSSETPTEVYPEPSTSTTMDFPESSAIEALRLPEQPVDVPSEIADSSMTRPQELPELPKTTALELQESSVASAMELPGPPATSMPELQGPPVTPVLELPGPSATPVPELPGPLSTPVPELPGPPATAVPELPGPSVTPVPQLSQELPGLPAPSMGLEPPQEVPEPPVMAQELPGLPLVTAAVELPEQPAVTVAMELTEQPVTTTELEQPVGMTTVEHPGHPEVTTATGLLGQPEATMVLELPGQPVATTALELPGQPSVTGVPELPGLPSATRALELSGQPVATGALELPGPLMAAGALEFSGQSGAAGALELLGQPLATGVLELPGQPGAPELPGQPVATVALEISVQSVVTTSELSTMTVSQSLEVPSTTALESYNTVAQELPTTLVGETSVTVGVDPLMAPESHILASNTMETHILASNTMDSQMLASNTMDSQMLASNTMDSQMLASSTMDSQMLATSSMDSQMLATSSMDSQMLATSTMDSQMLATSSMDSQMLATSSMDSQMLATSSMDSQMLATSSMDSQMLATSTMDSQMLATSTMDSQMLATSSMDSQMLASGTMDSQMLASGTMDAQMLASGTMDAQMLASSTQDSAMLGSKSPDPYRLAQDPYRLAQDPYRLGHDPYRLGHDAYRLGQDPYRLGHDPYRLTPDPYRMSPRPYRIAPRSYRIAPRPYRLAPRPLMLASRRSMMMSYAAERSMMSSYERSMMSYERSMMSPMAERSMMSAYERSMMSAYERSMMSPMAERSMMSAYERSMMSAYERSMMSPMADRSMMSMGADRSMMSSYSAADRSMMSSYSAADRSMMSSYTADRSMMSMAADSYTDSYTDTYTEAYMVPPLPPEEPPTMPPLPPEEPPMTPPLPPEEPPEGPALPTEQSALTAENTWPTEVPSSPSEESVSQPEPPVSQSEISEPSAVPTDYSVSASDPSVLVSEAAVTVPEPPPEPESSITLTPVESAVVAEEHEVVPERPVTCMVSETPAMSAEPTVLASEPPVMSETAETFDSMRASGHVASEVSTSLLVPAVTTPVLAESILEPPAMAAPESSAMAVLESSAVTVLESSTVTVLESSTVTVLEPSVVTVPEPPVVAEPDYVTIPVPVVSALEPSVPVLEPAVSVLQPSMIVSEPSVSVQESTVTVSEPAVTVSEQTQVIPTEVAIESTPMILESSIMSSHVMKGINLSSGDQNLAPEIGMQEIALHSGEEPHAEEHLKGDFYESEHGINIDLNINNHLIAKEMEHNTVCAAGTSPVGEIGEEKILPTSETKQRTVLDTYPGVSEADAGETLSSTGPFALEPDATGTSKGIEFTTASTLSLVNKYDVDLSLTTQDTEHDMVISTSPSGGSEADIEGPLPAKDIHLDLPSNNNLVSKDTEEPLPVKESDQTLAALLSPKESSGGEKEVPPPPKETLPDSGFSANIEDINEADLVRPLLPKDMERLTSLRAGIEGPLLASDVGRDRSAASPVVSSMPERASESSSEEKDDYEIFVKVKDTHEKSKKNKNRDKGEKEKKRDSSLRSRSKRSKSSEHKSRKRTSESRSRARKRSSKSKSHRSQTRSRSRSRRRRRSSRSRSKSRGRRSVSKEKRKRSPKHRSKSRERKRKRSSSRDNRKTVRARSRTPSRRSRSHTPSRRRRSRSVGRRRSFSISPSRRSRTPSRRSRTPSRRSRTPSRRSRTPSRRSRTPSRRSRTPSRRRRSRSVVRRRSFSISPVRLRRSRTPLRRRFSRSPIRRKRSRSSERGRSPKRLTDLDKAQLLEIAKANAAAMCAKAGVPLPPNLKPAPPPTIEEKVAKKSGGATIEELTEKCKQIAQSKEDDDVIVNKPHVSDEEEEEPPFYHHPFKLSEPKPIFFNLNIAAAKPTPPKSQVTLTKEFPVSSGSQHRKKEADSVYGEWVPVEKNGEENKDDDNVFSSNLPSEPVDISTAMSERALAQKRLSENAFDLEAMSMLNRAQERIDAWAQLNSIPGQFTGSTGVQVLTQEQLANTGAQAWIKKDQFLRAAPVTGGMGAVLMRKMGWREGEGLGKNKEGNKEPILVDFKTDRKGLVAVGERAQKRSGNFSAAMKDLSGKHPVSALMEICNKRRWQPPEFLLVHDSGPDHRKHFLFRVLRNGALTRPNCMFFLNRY
smiles,measurement,setting,value
"COC(=O)/C=C/C(=O)OC [DMF, dimethyl fumarate]",R value (DMSO/DMF),[1]; DMF 10 μM 4h,0.62
same,R value (DMSO/DMF),[1]; DMF 25 μM 4h,4.03
same,R value (DMSO/DMF),[1]; DMF 50 μM 1h,2.58
same,R value (DMSO/DMF),[1]; DMF 50 μM 2h,3.58
same,R value (DMSO/DMF),[1]; DMF 50 μM 4h,5.02
same,R value (DMSO/DMF),[2]; DMF 50 μM 2h,3
same,R value (DMSO/DMF),[2]; DMF 50 μM 4h,5.7
same,R value (DMSO/DMF),"[3]; VDAC3 C36 (Q9Y277), DMF 50 μM 1h",3.21
same,R value (DMSO/DMF),"[3]; VDAC3 C36 (Q9Y277), DMF 50 μM 2h",3.98
same,R value (DMSO/DMF),"[3]; VDAC3 C36 (Q9Y277), DMF 50 μM 4h",4.11
same,R value (DMSO/DMF),"[3]; VDAC3 C65 (Q9Y277), DMF 10 μM 4h",1.73
same,R value (DMSO/DMF),"[3]; VDAC3 C65 (Q9Y277), DMF 25 μM 4h",5.64
same,R value (DMSO/DMF),"[3]; VDAC3 C65 (Q9Y277), DMF 50 μM 1h",3.35
same,R value (DMSO/DMF),"[3]; VDAC3 C65 (Q9Y277), DMF 50 μM 2h",7.53
same,R value (DMSO/DMF),"[3]; VDAC3 C65 (Q9Y277), DMF 50 μM 4h",15.94
same,R value (DMSO/DMF),[4]; DMF 10 μM 4h,1.42
same,R value (DMSO/DMF),[4]; DMF 50 μM 2h,3.85
same,R value (DMSO/DMF),[4]; DMF 50 μM 4h,6.39
same,R value (DMSO/DMF),[5]; DMF 10 μM 4h,2.1
same,R value (DMSO/DMF),[5]; DMF 25 μM 4h,2.17
same,R value (DMSO/DMF),[5]; DMF 50 μM 2h,4.57
same,R value (DMSO/DMF),[6]; DMF 50 μM 1h,2.5
same,R value (DMSO/DMF),[6]; DMF 50 μM 2h,6.31
same,R value (DMSO/DMF),[6]; DMF 50 μM 4h,4.17

# — US10670605B2, “Cysteine reactive probes and uses thereof” (The Scripps Research Institute, priority 2015, dated 2020)
